We go through ten compounds from publication PMC6327951 (The Journal of organic chemistry, 2018).

In test [1] the target is T1, SpNanB (Streptococcus pneumoniae serotype 4, UniProt Q54727). The note with it: cited from earlier work.
The target in test [2] is T2, SpNanC (Streptococcus pneumoniae, UniProt A0A0H2UQE4). The note with it: cited from earlier work.
Test [3] concerns IT-sialidase RgNanH. The note with it: cited from earlier work.
For test [4], the system named is SpNanA, SpNanB, SpNanC, PmST1, BiNanH2, AuSialidase, CpNanI, VcSialidase, hNEU2. As to the kind of experiment: Sialidase inhibition assay at 1 mM, whole panel of sialidases tested. In kind it is biochemical. The note with it: inhibitor 1 mM.
Test [5] has as its target T1, SpNanB. The experiment in a line: SpNanB-catalyzed hydrolysis assay. In kind it is biochemical. The note with it: 10 mM compound, SpNanB 1 mg/mL, NaOAc pH 6.0 or Tris-HCl pH 7.0, 24 h.
Test [6] deals with T2, SpNanC. As to the kind of experiment: Sialidase inhibition assay, 384-well colorimetric, Neu5Acα2–3GalβpNP substrate. Type of test: biochemical.
Test [7] has as its target T3, SpNanA (Streptococcus pneumoniae, UniProt P62575). The description is as above. In kind it is biochemical. The note with it: inhibitor 1 mM.
Test [8] deals with AuSialidase (Paenarthrobacter ureafaciens, UniProt Q5W7Q2). The test is described as above. In kind it is biochemical, Arthrobacter ureafaciens. The note with it: inhibitor 1 mM.
Test [9] has as its target VcSialidase (Vibrio cholerae serotype O1, UniProt P0C6E9). The description is as above. Type of test: biochemical.
Test [10] addresses T1, SpNanB. The description is as above. In kind it is biochemical. The note with it: for Inhibitory activity against SpNanB: inhibitor 1 mM.
Test [11] deals with T3, SpNanA. The note with it: cited from earlier work.

“Also recorded” adds a separate entry of the source. Where two headings read alike, the source gives them in different places. Where only a bound is given, the exact number is not on record here.

T1 sequence (Q54727 30-697): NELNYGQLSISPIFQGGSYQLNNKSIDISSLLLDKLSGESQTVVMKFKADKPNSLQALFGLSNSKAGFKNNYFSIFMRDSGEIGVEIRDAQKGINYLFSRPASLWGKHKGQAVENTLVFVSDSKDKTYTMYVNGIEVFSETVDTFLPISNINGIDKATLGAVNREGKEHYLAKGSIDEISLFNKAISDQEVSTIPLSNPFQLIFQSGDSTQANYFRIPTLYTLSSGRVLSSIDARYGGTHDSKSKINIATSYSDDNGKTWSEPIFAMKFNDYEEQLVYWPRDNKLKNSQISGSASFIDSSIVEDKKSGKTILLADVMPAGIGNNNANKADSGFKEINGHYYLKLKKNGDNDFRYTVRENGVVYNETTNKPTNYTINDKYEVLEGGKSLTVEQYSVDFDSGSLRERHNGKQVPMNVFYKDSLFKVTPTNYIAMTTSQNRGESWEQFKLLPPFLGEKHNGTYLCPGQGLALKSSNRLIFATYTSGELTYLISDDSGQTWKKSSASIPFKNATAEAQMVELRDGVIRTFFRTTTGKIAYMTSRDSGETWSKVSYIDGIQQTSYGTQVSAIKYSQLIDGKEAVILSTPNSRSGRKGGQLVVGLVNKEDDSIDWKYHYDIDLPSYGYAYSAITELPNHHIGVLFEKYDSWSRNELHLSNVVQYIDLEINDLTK
T3 sequence (P62575 54-1035): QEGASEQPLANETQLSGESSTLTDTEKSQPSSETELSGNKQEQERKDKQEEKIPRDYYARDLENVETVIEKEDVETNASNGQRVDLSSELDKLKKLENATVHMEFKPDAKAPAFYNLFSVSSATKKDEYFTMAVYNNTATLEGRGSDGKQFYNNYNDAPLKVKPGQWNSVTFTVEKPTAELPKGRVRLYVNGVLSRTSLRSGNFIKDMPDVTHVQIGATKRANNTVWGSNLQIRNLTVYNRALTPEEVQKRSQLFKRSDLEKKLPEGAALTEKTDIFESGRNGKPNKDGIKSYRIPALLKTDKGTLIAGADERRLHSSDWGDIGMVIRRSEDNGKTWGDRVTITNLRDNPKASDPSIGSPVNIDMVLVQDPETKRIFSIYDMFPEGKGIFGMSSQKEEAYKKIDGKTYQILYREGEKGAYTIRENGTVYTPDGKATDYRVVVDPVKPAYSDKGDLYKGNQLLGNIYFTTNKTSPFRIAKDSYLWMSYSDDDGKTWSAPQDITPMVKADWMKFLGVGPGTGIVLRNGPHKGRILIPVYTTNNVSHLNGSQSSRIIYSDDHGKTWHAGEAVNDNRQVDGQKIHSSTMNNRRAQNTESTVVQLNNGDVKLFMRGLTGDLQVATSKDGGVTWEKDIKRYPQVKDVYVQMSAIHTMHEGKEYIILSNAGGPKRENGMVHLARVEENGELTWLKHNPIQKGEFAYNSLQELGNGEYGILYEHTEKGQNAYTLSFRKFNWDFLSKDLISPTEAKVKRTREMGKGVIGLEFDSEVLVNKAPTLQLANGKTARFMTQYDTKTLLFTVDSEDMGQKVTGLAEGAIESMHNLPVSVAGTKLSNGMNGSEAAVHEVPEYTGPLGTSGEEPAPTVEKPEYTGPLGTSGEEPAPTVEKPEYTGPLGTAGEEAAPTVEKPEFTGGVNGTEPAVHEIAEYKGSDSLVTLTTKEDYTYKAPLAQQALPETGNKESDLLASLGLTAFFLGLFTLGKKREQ
Sequence of VcSialidase (P0C6E9 25-781): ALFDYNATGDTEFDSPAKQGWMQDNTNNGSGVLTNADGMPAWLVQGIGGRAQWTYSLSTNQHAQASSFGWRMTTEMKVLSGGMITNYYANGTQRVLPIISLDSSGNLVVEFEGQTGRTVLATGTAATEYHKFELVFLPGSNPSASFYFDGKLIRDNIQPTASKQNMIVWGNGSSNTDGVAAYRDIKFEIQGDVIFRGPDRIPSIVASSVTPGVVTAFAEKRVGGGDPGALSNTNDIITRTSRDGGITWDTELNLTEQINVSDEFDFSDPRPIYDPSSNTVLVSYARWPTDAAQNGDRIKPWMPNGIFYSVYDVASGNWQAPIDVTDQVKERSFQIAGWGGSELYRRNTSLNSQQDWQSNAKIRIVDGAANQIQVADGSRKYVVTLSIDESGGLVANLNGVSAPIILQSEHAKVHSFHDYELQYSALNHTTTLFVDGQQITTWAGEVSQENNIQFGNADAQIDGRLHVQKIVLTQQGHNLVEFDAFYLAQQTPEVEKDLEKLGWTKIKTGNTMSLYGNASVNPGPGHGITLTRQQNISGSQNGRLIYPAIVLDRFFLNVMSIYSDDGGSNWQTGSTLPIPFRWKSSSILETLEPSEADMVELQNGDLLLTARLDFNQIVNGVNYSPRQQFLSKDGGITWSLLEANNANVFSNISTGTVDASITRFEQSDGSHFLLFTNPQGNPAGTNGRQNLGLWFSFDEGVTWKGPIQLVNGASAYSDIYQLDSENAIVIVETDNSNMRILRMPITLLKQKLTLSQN

`O=S(=O)(O)CCNC1CCCCC1` [CHES, 2-N-Cyclohexylaminoethanesulfonic acid]: in [1], the “Inhibition against SpNanB” value is reported as “weak inhibition”.
As for `CC(=O)N[C@H]1[C@H]([C@H](O)[C@H](O)CO)OC(C(=O)O)=C[C@@H]1O` [Neu5Ac2en, 2,3-dehydro-2-deoxy-N-acetylneuraminic acid], the “Inhibition against SpNanB” value in test [1] (other reports) was “millimolar inhibitor”. Also, in test [2], the “IC50 against SpNanC” value was “submillimolar range”.
With `CCOC(=O)C1=C[C@@H](OC(CC)CC)[C@H](NC(C)=O)[C@@H](N)C1` [Oseltamivir], the “Inhibitory activity against SpNanB” value in test [1] (concentration up to 7.5 mM) is recorded as “did not show inhibitory activity”. The “Inhibitory activity against SpNanC” value in test [2] (concentration up to 7.5 mM) is reported as “did not show inhibitory activity”. Also, in [3], the “Inhibition of RgNanH” value was “inhibited”.
Take `COc1cc2oc(-c3ccc(O)cc3O)c(CC=C(C)C)c(=O)c2c(O)c1/C=C/C(C)C` [artocarpin]: the “Inhibition against SpNanB” value in [1] is “reported to be inhibitors”.
For `CC(=O)N[C@H]1[C@H]2O[C@@](C(=O)O)(C[C@@H]1O)O[C@@H]2[C@H](O)CO` [compound 1, 5-Acetamido-2,7-anhydro-3,5-dideoxy-α-D-glycero-D-galacto-non-2-ulopyranosonic acid], the “Inhibition against any sialidases tested” value in [4] is recorded as “no significant inhibition”. Besides, the “Hydrolysis by SpNanB” value in [5] is “can be hydrolyzed by SpNanB; also recorded: most 2,7-anhydro-Neu5Ac (1) was converted to Neu5Ac”.
As to `O=C(N[C@H]1[C@H]2O[C@@](C(=O)O)(C[C@@H]1O)O[C@@H]2[C@H](O)CO)C(F)(F)F` [compound 2, 2,7-Anhydro-3,5-dideoxy-5-trifluoroacetamido-α-D-glycero-D-galacto-non-2-ulopyranosonic acid], the half-inhibitory concentration (IC50) in test [6] is greater than 1 mM; in test [9], 500 to 1000 µM; in test [10], 250 to 500 µM. Further, in [7], the “Inhibitory activity against SpNanA” value is on record as “some inhibitory activity”. Further, the “Inhibitory activity against AuSialidase” value in [8] is “some inhibitory activity”. For the same compound, in [9] (inhibitor 1 mM), the “Inhibitory activity against VcSialidase” value is on record as “some inhibitory activity”. The “Inhibitory activity against SpNanB” value in test [10] is on record as “some inhibitory activity”.
As for `N[C@H]1[C@H]2O[C@@](C(=O)O)(C[C@@H]1O)O[C@@H]2[C@H](O)CO` [compound 3, 5-Amino-2,7-anhydro-3,5-dideoxy-α-D-glycero-D-galacto-non-2-ulopyranosonic acid], the “Inhibition against any sialidases tested” value in test [4] is reported as “no significant inhibition”.
In the case of `O=C(N[C@H]1[C@H]2O[C@@](C(=O)O)(C[C@@H]1O)O[C@@H]2[C@H](O)CO)C1CCCCC1` [compound 4, 2,7-Anhydro-5-cyclohexylamido-3,5-dideoxy-α-D-glycero-D-galacto-non-2-ulopyranosonic acid], the “Inhibitory activity against SpNanC” value in test [6] (inhibitor 1 mM) was “noticeable inhibitory activity”. Moreover, the “Inhibitory activity against SpNanA” value in test [7] is recorded as “noticeable inhibitory activity”. In addition, the “Hydrolysis by SpNanB” value in [5] is “resistant to SpNanB hydrolysis; also recorded: remained intact”. The “Inhibitory activity against SpNanB” value in test [10] is “noticeable inhibitory activity”.
With `O=C(CCc1ccccc1)C[C@@H]1C[C@@H](c2ccccc2)c2c(cc(/C=C/c3ccccc3)oc2=O)O1` [katsumadain A], in test [1], the “Inhibition against SpNanB” value is “reported to be inhibitors”.
In the case of `O=C(CCCCCCCCc1ccc(O)c(O)c1)c1c(O)cccc1O` [malabaricone C], the “IC50 against SpNanB” value in test [1] is “submicromolar range”. In [2], the “IC50 against SpNanC” value is “submicromolar range”. Besides, the “IC50 against SpNanA” value in test [11] is on record as “submicromolar range”.

One may read the IC50 as the point on the concentration scale where inhibition reaches its midpoint. A higher IC50 goes with lower potency.
